Values of other authors in US11311556B2, “Topical dutasteride emulsions for treating endocrine therapy-induced alopecia” (Varsona Therapeutics, Inc., priority 2020, dated 2022).
Like-named read-outs stand apart in the source and are kept apart here.

Columns and labels:
[1] = system: DHT; details: oral, subjects with BPH
[2] = 416 men, 12 to 24 weeks

Structure (SMILES)	DHT blocked ([1]; 5 mg daily dose)	DHT blocked ([1]; 0.5 mg daily dose)	Hair count results versus oral finasteride [2]
CC(C)(C)NC(=O)[C@H]1CC[C@H]2[C@@H]3CC[C@H]4NC(=O)C=C[C@]4(C)[C@H]3CC[C@]12C [oral finasteride, finasteride]	70.8+/−18.3%		
C[C@]12C=CC(=O)N[C@@H]1CC[C@@H]1[C@@H]2CC[C@]2(C)[C@@H](C(=O)Nc3cc(C(F)(F)F)ccc3C(F)(F)F)CC[C@@H]12 [oral dutasteride, (5α, 17β)-N-{2,5 bis(trifluoromethyl)phenyl}-3-oxo-4-azaandrost-1-ene-17-carboxamide]	98.4%	94.7+/−3.3%	better hair count results than oral finasteride
